Counter-ions that a name gives are not always drawn.
Columns and labels:
CT26 cells = experiment: Anti-tumor activity in transplantation tumor model of CT26 nude mouse; format: in vivo, BALB/c nude mice; details: for Tumor growth inhibition rate in T cell immunodeficient nude mice: Day 9 post-dosing, 50 μg/mouse (2.5 mg/kg) intratumorally, Day 0 and Day 4; for Tumor growth inhibition in immuno-competent mice versus nude mice (in words): FIG. 2D
Protocol: BALB/c nude mice of 6-8 weeks (purchased from Shanghai Ling Chang Biotech Co., Ltd.) were inoculated with 5×10^5 CT26 cells (supplied by Taicang Zexin Biotechnology Co., Ltd., ATCC #CRL-2638) subcutaneously on the right back dorsal, respectively, and the inoculation volume was 0.1 mL. When tumors grew to an average volume of 100 mm^3, they were randomized according to tumor size and mouse body weight and dosed. The day of the first dose was Day 0. Two doses were administered on Day 0 and Day 4, with 50 μg of compound/mouse (i.e., 2.5 mg/kg) injected intratumorally right side, with the same volume of PBS (Hyclone, Cat #SH30258.01) as a control. The control mice were sacrificed 9 days, the ADU-S100 treated mice were sacrificed 14 days, and Example 10 treated mice were sacrificed 16 days, after dosing, respectively. During the experiment, tumor volumes and the body weights were measured 3 times per week, and the tumor volume was calculated as V=D×d×d/2 (Ibid).

[1] = system: IFN-β secretion by THP-1 cells; experiment: Activation of IFN-β secretion by THP-1 cells (Human IFN-beta ELISA); format: cell-based; details: for EC50 / Activating effect on IFN-β secretion / STING agonist activity (in words): THP-1 cells; for EC50: 24 hours, IFN-β ELISA; for Activating effect on IFN-β secretion / STING agonist activity (in words): EC50 compared with 2′,3′-cGAMP and ADU-S100; for Highest concentration of IFN-β secreted by stimulated THP-1 cells: compared with ADU-S100
Protocol: THP-1 cell, a human monocytic leukemia cell line, has the STING phenotype of HAQ type, i.e., R71H-G230A-R293Q. This assay used the Human IFN-beta DuoSet ELISA Kit from R & D (R & D, Cat #DY814-05) and the DuoSet ELISA Ancillary Reagent Kit 2 (R & D, Cat #DY008) to evaluate the activation of IFN-β secretion from THP-1 cells by representative compounds of the invention.
In thawing the THP-1 cells (ATCC #TIB-202), a cell freezing tube was quickly shaken in a water bath at 37° C. to thaw the cells within 1 min. The thawed cell suspension was taken and evenly mixed with an RPMI1640 medium (Hyclone, product #SH30027.01) containing 10% FBS (Life Technology, Cat #10099-141), centrifuged for 5 min at 1000 rpm, and the supernatant was discarded. The cell pellet was resuspended in 5 mL of the complete medium (RPMI 1640 medium containing 10% FBS), placed into a cell culture flask with a bottom area of 25 cm^2, and incubated in a cell incubator at 37° C., 5% CO2 and 95% humidity. When the cell confluence reached about 80%, the cells were passaged. All the cells in the culture flask were transferred to a 15 mL centrifuge tube, centrifuged for 5 min at 1000 rpm, and the supernatant was discarded. 5 mL of fresh complete medium was added to re-suspend the cell pellet, 1 mL of which was taken to place in a cell culture flask with a bottom area of 25 cm^2, supplemented with 4 mL of fresh complete medium for further incubation. When the cell confluence reached about 80% again, plating was conducted following the procedure of cell passage, retaining 1/5 cell suspension for further inculation and remaining 4/5 of the cell suspension in a 15 mL centrifuge tube. The cell suspension was centrifuged to discard the old culture medium, washed once using RPMI1640 culture medium (serum-free), and centrifuged to remove the supernatant. The cells were then re-suspended in RPMI1640 culture medium (serum-free). Cell viability was then detected by Trypan blue exclusion test and to be used for plating when the cell viability was confirmed to be more than 95%. A cell suspension with a density of 1.1×10^6 viable cells/mL was prepared using RPMI1640 culture medium (serum-free), and 180 μL of the cell suspension was added to a 96-well cell culture plate (NUNC Company, Cat #167008) so that the cell density in the plate was 2×10^5 viable cells/well.
A 10 mM stock solution of the compounds in DMSO was first serially diluted at 3.16-fold with DMSO (Sigma, Cat #D2650) to the 5th concentration, and the 6th concentration was set as DMSO control (compound-free). Then, the DMSO solutions containing different concentrations of the compounds were diluted at 10-fold with PBS so that the DMSO content in each compound solution of various concentrations was 10%. Finally, 20 μL of each of such solutions was added into corresponding cell culture plate to provide an initial compound concentration of 100 μM, with the dilution fold of adjacent concentrations being 3.16 and the DMSO content in the cell culture plate being 1%. The cell plate was placed in a cell incubator for further 24 hours.
ELISA detection was conducted referring to the instructions from R & D System, Cat #DY814-05.
ELISA plate coating: PBS (R & D System Cat #DY006) was used to dilute the capture antibody (mouse anti-human IFN-β capture antibody PART #844508) to provide the working concentration, and 100 μL capture antibody working solution was added to a 96-well ELISA plate which was then sealed and incubated overnight at room temperature. Upon discarding the capture antibody working solution, the cell plate was washed 3 times with a washing buffer (0.05% Tween-20 in PBS, pH 7.2-7.4, R & D System Cat #WA126) at 400 μL of the washing buffer per well, and the washing buffer was thoroughly removed after each washing, with the final washing to be completely removed of the wash buffer by inverting and claping the plate to a clean piece of paper. […]

Nc1ncnc2c1ncn2[C@@H]1O[C@@H]2COP(=O)([S-])O[C@@H]3[C@H](O)[C@@H](COP([O-])(=S)O[C@H]2[C@H]1O)O[C@H]3n1cnc2c(N)ncnc21.[Na+].[Na+] (some centres unmarked) [ADU-S100, reference compound]
Tumor growth inhibition rate in T cell immunodeficient nude mice (CT26 cells): 61.4% | Tumor growth inhibition in immuno-competent mice versus nude mice (in words) (CT26 cells): better tumor growth inhibition in immuno-competent mice than in nude mice | EC50 [1]: 1 to 10 µM

Nc1nc2c(ncn2[C@@H]2O[C@@H]3CO[P@@](=O)(S)OC4C(F)[C@H](n5cnc6c(N)nc(Cl)nc65)O[C@@H]4CO[P@@](=O)(S)OC3C2O)c(=O)[nH]1 (some centres unmarked) [Example 17, diammonium salt]
EC50 ([1]; Homo sapiens, THP-1, 24 h): 1 to 10 µM | Activating effect on IFN-β secretion / STING agonist activity (in words) [1]: significant STING agonist activity | Highest concentration of IFN-β secreted by stimulated THP-1 cells [1]: higher than that of ADU-S100

Nc1nc2c(ncn2[C@@H]2O[C@@H]3CO[P@@](=O)(S)OC4C(F)[C@H](n5cnc6c(N)nc(Cl)nc65)O[C@@H]4CO[P@@](=O)(S)OC2C3O)c(=O)[nH]1 (stereo partly drawn) [Example 10, (2′,3′)-cyclo-(Rp,Rp)-[2′-O-phosphorothioate-diester-guanosine]-[3′-O-phosphorothioate-diester-2-chloro-2′-deoxy-2′-fluoro-beta-adenosine] diammonium salt]
Tumor growth inhibition rate in T cell immunodeficient nude mice (CT26 cells): 94.4% | Tumor growth inhibition in immuno-competent mice versus nude mice (in words) (CT26 cells): better tumor growth inhibition in immuno-competent mice than in nude mice | EC50 ([1]; Homo sapiens, THP-1, 24 h): 1 to 10 µM | Activating effect on IFN-β secretion / STING agonist activity (in words) [1]: significant STING agonist activity | Highest concentration of IFN-β secreted by stimulated THP-1 cells [1]: higher than that of ADU-S100

— patent US20240059729A1, “MULTIFUNCTIONAL CYCLIC DINUCLEOTIDE AND USE THEREOF” (TYLIGAND BIOSCIENCE (SHANGHAI) LIMITED, priority 2020, published 2024)
